Results: PubChem BioAssay (NCI)
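Step 1: Grow cells in 96-well plates. Step 2: Expose to compound for 48 hours at 5 concentrations. Step 3: Interpolate endpoints linearly; if unreached, use highest concentration. TGI: total growth inhibition.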

Key:
Experiment in all cases: NCI anticancer screen, dose series, 48 h
UACC-257 melanoma = system: UACC-257 melanoma
DU-145 prostate = system: DU-145 prostate
COLO 205 colon = system: COLO 205 colon
NCI/ADR-RES ovarian = system: NCI/ADR-RES ovarian
KM12 colon = system: KM12 colon
NCI-H460 lung = system: NCI-H460 lung
NCI-H522 lung = system: NCI-H522 lung
ACHN renal = system: ACHN renal
NCI-H23 lung = system: NCI-H23 lung
HCC-2998 colon = system: HCC-2998 colon
SF-539 CNS = system: SF-539 CNS
SF-295 CNS = system: SF-295 CNS
MDA-MB-435 = system: MDA-MB-435
OVCAR-5 ovarian = system: OVCAR-5 ovarian
MDA-MB-231 breast = system: MDA-MB-231 breast
BT-549 breast = system: BT-549 breast
HL-60(TB) leukemia = system: HL-60(TB) leukemia
UO-31 renal = system: UO-31 renal
UACC-62 melanoma = system: UACC-62 melanoma
HT29 colon = system: HT29 colon
HCT-116 colon = system: HCT-116 colon
MOLT-4 leukemia = system: MOLT-4 leukemia
HOP-92 NSCLC = system: HOP-92 NSCLC
SN12C renal = system: SN12C renal
SNB-19 CNS = system: SNB-19 CNS
RXF 393 renal = system: RXF 393 renal
RPMI-8226 leukemia = system: RPMI-8226 leukemia
T-47D breast = system: T-47D breast
A549 NSCLC = system: A549 NSCLC
SW-620 colon = system: SW-620 colon
EKVX NSCLC = system: EKVX NSCLC
SNB-75 CNS = system: SNB-75 CNS
SK-MEL-2 melanoma = system: SK-MEL-2 melanoma
OVCAR-4 ovarian = system: OVCAR-4 ovarian
U251 CNS = system: U251 CNS
M14 melanoma = system: M14 melanoma
OVCAR-3 ovarian = system: OVCAR-3 ovarian
TK-10 renal = system: TK-10 renal
SK-OV-3 ovarian = system: SK-OV-3 ovarian
MDA-N = system: MDA-N
PC-3 prostate = system: PC-3 prostate
SR leukemia = system: SR leukemia
IGROV1 ovarian = system: IGROV1 ovarian
OVCAR-8 ovarian = system: OVCAR-8 ovarian
SF-268 CNS = system: SF-268 CNS
LOX IMVI melanoma = system: LOX IMVI melanoma
CAKI-1 renal = system: CAKI-1 renal
K-562 leukemia = system: K-562 leukemia
HS 578T breast = system: HS 578T breast
SK-MEL-5 melanoma = system: SK-MEL-5 melanoma
SK-MEL-28 melanoma = system: SK-MEL-28 melanoma
CCRF-CEM leukemia = system: CCRF-CEM leukemia
HCT-15 colon = system: HCT-15 colon
HOP-62 NSCLC = system: HOP-62 NSCLC
MALME-3M melanoma = system: MALME-3M melanoma
MCF7 breast = system: MCF7 breast
786-0 renal = system: 786-0 renal
A498 renal = system: A498 renal
NCI-H226 lung = system: NCI-H226 lung

`NC(CCCCP(=O)(O)O)C(=O)O` (stereo unspecified) was tested, and the TGI (UACC-257 melanoma) was over 100 µM, the TGI (DU-145 prostate) was over 100 µM and the TGI (COLO 205 colon) was over 100 µM. It also gave a TGI (NCI/ADR-RES ovarian) of over 100 µM, a TGI (KM12 colon) of over 100 µM and a TGI (NCI-H460 lung) of over 100 µM. It also gave a TGI (NCI-H522 lung) of over 100 µM, a TGI (ACHN renal) of over 100 µM and a TGI (NCI-H23 lung) of over 100 µM. The TGI (HCC-2998 colon) was over 100 µM, the TGI (SF-539 CNS) was over 100 µM and the TGI (SF-295 CNS) was over 100 µM. The TGI (MDA-MB-435) was over 100 µM, the TGI (OVCAR-5 ovarian) was over 100 µM and the TGI (MDA-MB-231 breast) was over 100 µM. It also gave a TGI (BT-549 breast) of over 100 µM, a TGI (HL-60(TB) leukemia) of over 100 µM and a TGI (UO-31 renal) of over 100 µM. The TGI (UACC-62 melanoma) was over 100 µM, the TGI (HT29 colon) was over 100 µM and the TGI (HCT-116 colon) was over 100 µM. It also gave a TGI (MOLT-4 leukemia) of over 100 µM, a TGI (HOP-92 NSCLC) of over 100 µM and a TGI (SN12C renal) of over 100 µM. It also gave a TGI (SNB-19 CNS) of over 100 µM, a TGI (RXF 393 renal) of over 100 µM and a TGI (RPMI-8226 leukemia) of over 100 µM. It also gave a TGI (T-47D breast) of over 100 µM, a TGI (A549 NSCLC) of over 100 µM and a TGI (SW-620 colon) of over 100 µM. For the same compound, the TGI (EKVX NSCLC) was over 100 µM, the TGI (SNB-75 CNS) was over 100 µM and the TGI (SK-MEL-2 melanoma) was over 100 µM. For the same compound, the TGI (OVCAR-4 ovarian) was over 100 µM, the TGI (U251 CNS) was over 100 µM and the TGI (M14 melanoma) was over 100 µM. The TGI (OVCAR-3 ovarian) was over 100 µM, the TGI (TK-10 renal) was over 100 µM and the TGI (SK-OV-3 ovarian) was over 100 µM. For the same compound, the TGI (MDA-N) was over 100 µM, the TGI (PC-3 prostate) was over 100 µM and the TGI (SR leukemia) was over 100 µM. It also gave a TGI (IGROV1 ovarian) of over 100 µM, a TGI (OVCAR-8 ovarian) of over 100 µM and a TGI (SF-268 CNS) of over 100 µM. For the same compound, the TGI (LOX IMVI melanoma) was over 100 µM, the TGI (CAKI-1 renal) was over 100 µM and the TGI (K-562 leukemia) was over 100 µM. For the same compound, the TGI (HS 578T breast) was over 100 µM, the TGI (SK-MEL-5 melanoma) was over 100 µM and the TGI (SK-MEL-28 melanoma) was over 100 µM. It also gave a TGI (CCRF-CEM leukemia) of over 100 µM and a TGI (HCT-15 colon) of over 100 µM.
`NC(N)=NCCN=C(N)N` showed a TGI (UACC-257 melanoma) of over 100 µM, a TGI (DU-145 prostate) of over 100 µM and a TGI (COLO 205 colon) of over 100 µM. It also gave a TGI (HOP-62 NSCLC) of over 100 µM, a TGI (NCI/ADR-RES ovarian) of over 100 µM and a TGI (KM12 colon) of over 100 µM. For the same compound, the TGI (MALME-3M melanoma) was over 100 µM, the TGI (NCI-H460 lung) was over 100 µM and the TGI (NCI-H522 lung) was over 100 µM. The TGI (ACHN renal) was over 100 µM, the TGI (MCF7 breast) was over 100 µM and the TGI (NCI-H23 lung) was over 100 µM. For the same compound, the TGI (HCC-2998 colon) was over 100 µM, the TGI (SF-539 CNS) was over 100 µM and the TGI (SF-295 CNS) was over 100 µM. It also gave a TGI (MDA-MB-435) of over 100 µM, a TGI (OVCAR-5 ovarian) of over 100 µM and a TGI (MDA-MB-231 breast) of over 100 µM. The TGI (BT-549 breast) was over 100 µM, the TGI (HL-60(TB) leukemia) was over 100 µM and the TGI (UO-31 renal) was over 100 µM. For the same compound, the TGI (UACC-62 melanoma) was over 100 µM, the TGI (HT29 colon) was over 100 µM and the TGI (HCT-116 colon) was over 100 µM. The TGI (MOLT-4 leukemia) was over 100 µM, the TGI (HOP-92 NSCLC) was over 100 µM and the TGI (SN12C renal) was over 100 µM. For the same compound, the TGI (SNB-19 CNS) was over 100 µM, the TGI (RXF 393 renal) was over 100 µM and the TGI (RPMI-8226 leukemia) was over 100 µM. The TGI (T-47D breast) was over 100 µM, the TGI (A549 NSCLC) was over 100 µM and the TGI (SW-620 colon) was over 100 µM. The TGI (EKVX NSCLC) was over 100 µM, the TGI (SNB-75 CNS) was over 100 µM and the TGI (786-0 renal) was over 100 µM. The TGI (SK-MEL-2 melanoma) was over 100 µM, the TGI (OVCAR-4 ovarian) was over 100 µM and the TGI (U251 CNS) was over 100 µM. The TGI (M14 melanoma) was over 100 µM, the TGI (OVCAR-3 ovarian) was over 100 µM and the TGI (TK-10 renal) was over 100 µM. For the same compound, the TGI (SK-OV-3 ovarian) was over 100 µM, the TGI (MDA-N) was over 100 µM and the TGI (PC-3 prostate) was over 100 µM. It also gave a TGI (IGROV1 ovarian) of over 100 µM, a TGI (OVCAR-8 ovarian) of over 100 µM and a TGI (SF-268 CNS) of over 100 µM. It also gave a TGI (LOX IMVI melanoma) of over 100 µM, a TGI (CAKI-1 renal) of over 100 µM and a TGI (K-562 leukemia) of over 100 µM. It also gave a TGI (HS 578T breast) of over 100 µM, a TGI (SK-MEL-5 melanoma) of over 100 µM and a TGI (SK-MEL-28 melanoma) of over 100 µM. It also gave a TGI (A498 renal) of over 100 µM, a TGI (CCRF-CEM leukemia) of over 100 µM and a TGI (HCT-15 colon) of over 100 µM.
With `CCOC(=O)C1=CC(C)(C(=O)OCC)Nc2c(nc(OC)n(C)c2=O)N1` (stereo unspecified) the TGI (UACC-257 melanoma) was over 10 µM, the TGI (DU-145 prostate) was over 10 µM and the TGI (COLO 205 colon) was over 10 µM. It also gave a TGI (HOP-62 NSCLC) of over 10 µM, a TGI (NCI/ADR-RES ovarian) of over 10 µM and a TGI (KM12 colon) of over 10 µM. The TGI (MALME-3M melanoma) was over 10 µM, the TGI (NCI-H460 lung) was over 10 µM and the TGI (NCI-H522 lung) was over 10 µM. It also gave a TGI (ACHN renal) of over 10 µM, a TGI (MCF7 breast) of over 10 µM and a TGI (NCI-H23 lung) of over 10 µM. For the same compound, the TGI (HCC-2998 colon) was over 10 µM, the TGI (SF-539 CNS) was over 10 µM and the TGI (SF-295 CNS) was over 10 µM. For the same compound, the TGI (MDA-MB-435) was over 10 µM, the TGI (NCI-H226 lung) was over 10 µM and the TGI (OVCAR-5 ovarian) was over 10 µM. The TGI (MDA-MB-231 breast) was over 10 µM, the TGI (BT-549 breast) was over 10 µM and the TGI (UO-31 renal) was over 10 µM. The TGI (HT29 colon) was over 10 µM, the TGI (HCT-116 colon) was over 10 µM and the TGI (MOLT-4 leukemia) was over 10 µM. It also gave a TGI (HOP-92 NSCLC) of over 10 µM, a TGI (SN12C renal) of over 10 µM and a TGI (SNB-19 CNS) of over 10 µM. The TGI (RXF 393 renal) was over 10 µM, the TGI (RPMI-8226 leukemia) was over 10 µM and the TGI (T-47D breast) was over 10 µM. For the same compound, the TGI (A549 NSCLC) was over 10 µM, the TGI (SW-620 colon) was over 10 µM and the TGI (EKVX NSCLC) was over 10 µM. It also gave a TGI (SNB-75 CNS) of over 10 µM, a TGI (786-0 renal) of over 10 µM and a TGI (SK-MEL-2 melanoma) of over 10 µM. The TGI (OVCAR-4 ovarian) was over 10 µM, the TGI (U251 CNS) was over 10 µM and the TGI (M14 melanoma) was over 10 µM. It also gave a TGI (OVCAR-3 ovarian) of over 10 µM, a TGI (TK-10 renal) of over 10 µM and a TGI (SK-OV-3 ovarian) of over 10 µM. For the same compound, the TGI (MDA-N) was over 10 µM, the TGI (PC-3 prostate) was over 10 µM and the TGI (IGROV1 ovarian) was over 10 µM. It also gave a TGI (OVCAR-8 ovarian) of over 10 µM, a TGI (SF-268 CNS) of over 10 µM and a TGI (LOX IMVI melanoma) of over 10 µM. It also gave a TGI (CAKI-1 renal) of over 10 µM, a TGI (K-562 leukemia) of over 10 µM and a TGI (HS 578T breast) of over 10 µM. The TGI (SK-MEL-5 melanoma) was over 10 µM, the TGI (SK-MEL-28 melanoma) was over 10 µM and the TGI (A498 renal) was over 10 µM. It also gave a TGI (CCRF-CEM leukemia) of over 10 µM and a TGI (HCT-15 colon) of over 10 µM.
